# Literature values in patent publication US20130156896A1, “CELLULOSE-BASED FOOD CASING HAVING A FUNGICIDAL FINISH AND A METHOD FOR PROTECTING CELLULOSE-BASED FOOD CASINGS FROM MOLD INFESTATION” (CASETECH GMBH, priority 2011, published 2013).
# Legend:
# [1] = test system: microorganisms; conditions: known from the literature
# [2] = test system: Staphylococcus aureus; conditions: for example against Staphylococcus aureus
# [3] = animal testing
SMILES,activity against microorganisms [1],antimicrobial activity [2],chemoprotective effect against carcinogens [3]
"COc1ccc(O)c(C(C)(C)C)c1 [BHA, butylated hydroxyanisole]",relatively weak activity,–,–
CC(C)c1cc2c(c(O)c1O)[C@@]1(C(=O)O)CCCC(C)(C)[C@@H]1CC2 [carnosic acid],–,antimicrobial activity,chemoprotective effect
